Consider 85 compounds from a melting point compilation (Tetko et al.; mined from patent text by program, amines drawn as free bases though some values may be those of a salt).

Usually melting point stands for the temperature, or range, at which the solid turns liquid.

`O=C(Oc1ccccc1)Oc1ccccc1C(=O)NC(Oc1ccccc1)C(Cl)(Cl)Cl` (stereo not given): the melting point was in the range of 110 to 111 °C. `CCCCN(C(=O)C1CCCCC1)c1nn(C)cc1Cl` showed a melting point of 110 to 112 °C. As for `OCCCc1cnoc1-c1ccc(Cl)c(Cl)c1`, the melting point was in the range of 66 to 67 °C. As for `O=C(Oc1ccccc1)OC1CN(C(=O)Oc2ccccc2)CCC1c1ccccc1` (stereo not given), the figure is 153 to 154 °C. The result for `CCOC(=O)C=Cc1cc(Cl)cc(Cl)c1` reads 71 to 73 °C; that for `CCCCn1c(=O)c2nc(C(=O)O)cn2c2ccccc21`, 220 to 222 °C; that for `COc1cc(-c2ncc(Cl)cc2F)c(F)cc1Cl`, 120 to 122 °C. The result for `COc1ccc2c(CN3CCC[C@H]3CO)cc3cc4c(cc3c2c1)OCO4` reads 138 to 139 °C; that for `COc1ccc(-c2c(Cl)c(Cn3cnc4ccccc43)nc3sc4c(c23)CCS(=O)C4)cc1` (stereo not given), 233 to 235 °C; that for `Cc1nc2c(N)nc3c(c2n1CC(C)(C)OCCS(C)(=O)=O)CCCC3`, 226 to 229 °C. `O=C(Oc1ccccc1)C1c2ccccc2Oc2ccc(O)cc21` (stereo not given) registered a melting point of 182 to 184 °C. The result for `CCOC(=O)c1cc2c([nH]1)c(N(C)S(=O)(=O)c1cccs1)cn2CC` reads 122 °C. For the compound `CC(C)CCn1cc(C(=O)Nc2nccs2)c2ccc(Cl)cc21`, the melting point lay within 179 to 180 °C. As for `O=C(O)Cn1cnc2c(NC3CCCCC3)nc(NCc3ccc(C4CCCCC4)cc3)nc21`, the figure is 172 to 179 °C; as for `CCn1cc(C2(c3cccc(-c4cccnc4F)c3)N=C(N)N(C)C2=O)cc1C=O` (stereo not given), 152 to 156 °C; as for `COc1cc(Nc2c(C#N)cnc3cc(-c4ccc(CN5CCCCC5)s4)ccc23)c(Cl)cc1Cl`, 155 to 160 °C.

`CC(C)(C)OC(=O)CCc1cc(S(C)(=O)=O)cc(-c2nc(=O)c3ccc(F)cc3s2)n1` registered a melting point of 178 °C. The result for `CN1CC(N(C)[C@@H]2c3cc(C#N)ccc3OC(C)(C)[C@H]2O)=CC1=O` (relative stereo) reads 266 to 269 °C; that for `CC1(C)Oc2cccnc2C2OC21` (stereo not given), 65 to 67 °C. The result for `CC(C)c1ccc2nc3ccc(C(=O)NCCCCc4cccnc4)cc3c(=O)n2c1` reads 247 to 249 °C; that for `CCOC(=O)c1cc(NCc2ccccc2)c(Nc2cccc(OC)c2)c(S(N)(=O)=O)c1`, 149 to 152 °C; that for `Cc1cccc(C(=O)Nc2ccc3c(c2)CC(N(C)Cc2ccccn2)C3)c1-c1ccc(C(F)(F)F)cc1` (stereo not given), 105 to 115 °C.

In turn, `CC[C@H](C)[C@H](NC(=O)O[C@@H](CC(C)C)C(=O)OCc1ccccc1)C(N)=O` had a melting point of 140 to 141 °C.

`N#CSCCON=C(C(=O)O)c1csc(NC(c2ccccc2)(c2ccccc2)c2ccccc2)n1` displayed a melting point of 194 °C.

Regarding `CC(=O)OC1CSC(Oc2ccc(-c3ccc(CO)cc3)nc2)C(OC(C)=O)C1OC(C)=O` (stereo not given), the melting point is 157 °C. The result for `COc1cc(CNC(=O)c2nc3scc(COc4ccc(C(=O)O)cc4)c3c(=O)[nH]2)ccc1F` reads 276 to 281 °C.

The compound `Nc1ncnc2c1ncn2C[C@@H]1O[C@H](CO)[C@@H](O)[C@@H]1O` gave a melting point of 107 to 109 °C. The result for `CCc1c(CC(N)=O)c2cc(OCCCC(N)=O)ccc2n1Cc1ccccc1` reads 176 to 179 °C; that for `Cn1cc(Br)cc(Nc2ccn(CCO[Si](C)(C)C(C)(C)C)n2)c1=O`, 96 to 97 °C. `CC(C)CC(C(=O)O)N(C)C(C)C` (stereo not given) displayed a melting point of 159 to 160 °C. Compound `CCOC(=O)c1ccc2c(c1)N(C(=O)c1ccccc1)Cc1ccccc1O2` returned a melting point of 149 to 150 °C. The compound `CCn1cc(C(=O)O)c(=O)c2cc(F)c(-c3csc(CNC)n3)c(OC)c21` yielded a melting point of 164 to 166 °C. Take `O=[N+]([O-])c1cnccc1-c1ccc(Cl)cc1`: the melting point lay within 74 to 76 °C. The result for `CC(C)Cn1c(CONC(=O)NC(C)C)nc2c(N)nc3ccccc3c21` reads 218 to 219 °C; that for `COC(=O)/C=C/c1ccc(CC(C)NCC(O)c2ccccc2F)cc1` (stereo not given), 111 to 116 °C. The result for `CCOC(=O)C(CC)Nc1ccc2ccccc2c1` (stereo not given) reads 81 to 83 °C; that for `COc1cc(Cc2nccc3c(OCc4ccccc4)cc(OCc4ccccc4)cc23)cc(OC)c1OC`, 158 to 160 °C; that for `Cc1ccc(-n2c(-c3cc(-c4ccccc4)c(N4CCOCC4)s3)nc3ccccc3c2=O)cc1`, 207 to 209 °C. The result for `CC(C)(C)OC(=O)c1nc(-c2ccccc2)[nH]c1-c1cccnc1` reads 196 to 197 °C; that for `OC1Cc2ccc(F)cc2Sc2ccc(I)cc21` (stereo not given), 162 °C. Regarding `C=CCN1CC(C)N(C(c2cccc(O)c2)c2cccc(C#N)c2)CC1C` (stereo not given), the melting point is 169 to 171 °C. As for `CC(C)C1C(=O)Nc2ccc(O)cc21` (stereo not given), the figure is 175 °C; as for `COc1ccc([C@@H]2SC(c3ccccc3)=C(C)N(CCN(C)C)C(=O)[C@H]2O)cc1` (relative stereo), 132 to 133 °C. Turning to `CCOC(C)c1ccc(OCCCN2CCC(c3noc4cc(F)ccc34)CC2)c(OC)c1` (stereo not given), the melting point was determined as 139 °C.

Take `CC1=C(C(=O)OCCOc2ccc(C(=O)c3ccccc3)c(O)c2)CC(C(=O)OCCOc2ccc(C(=O)c3ccccc3)c(O)c2)=C(C)N1`: the melting point is 188 °C. The result for `Cc1cc([Si](C)(C)C)c(C)cc1[Si](C)(C)C` reads 56 to 57.5 °C. For the compound `COC(=O)C=C1C(=O)N(C)C(=O)N1C`, the melting point was 49.5 °C. As for `Nc1cc(Br)ccc1-c1ccc(F)cc1F`, the figure is 67 to 69 °C. Consider `CC(=O)c1c(C)[nH]c(-c2ccccc2)c1N(C)C`, for which the melting point lay within 153 to 155 °C. The result for `COc1cccc(C(=O)Nc2ccccc2C(c2ccc(O)cc2)c2ccc(O)cc2)c1` reads 165 to 168 °C; that for `COCCN1CCN(C)c2cc(Nc3ncc(Cl)c(N[C@@H]4CCCC[C@H]4NS(C)(=O)=O)n3)c(OC)cc2C1`, 89 °C. On to `CC(=O)OC1CSC(Oc2cncc(-c3ccc(F)cc3C)c2)C(OC(C)=O)C1OC(C)=O` (stereo not given), for which the melting point was 120 °C. The result for `Cc1c(-c2ccccc2)sc(N2C(=O)c3ccccc3C2=O)c1C(=O)c1ccc(Cl)cc1` reads 223 to 225 °C. The result for `O=C(N[C@@H](CSC(=O)c1ccccc1)C(=O)O)c1ccccc1` reads 183 to 185 °C; that for `Cc1ccc(C)c(-c2cn(C)cc(-c3ccccc3)c2=O)c1`, 188 to 190 °C; that for `COc1ccc(Sc2nc(-c3ccc(OC)cc3)cnc2N)cc1`, 149 to 151 °C. `CCOC(=O)C1=C(N)NC(N)=C(C(=O)OCC)C1c1ccccc1N=[N+]=[N-]` had a melting point of 250 °C. The result for `C(#Cc1cccnc1)C1=CCN(Cc2c[nH]c3ncccc23)CC1` reads 170 to 172 °C; that for `CCOC(=O)C(=Cc1cccc(OC)c1OC)N=[N+]=[N-]`, < 50 °C; that for `CCOC(=O)CCC(=O)Oc1cccc(-c2cn3c(n2)sc2ccccc23)c1`, 70 to 74 °C. The result for `CN(Cc1ccccc1)c1nccc2ccccc12` reads 53.5 to 54.5 °C; that for `C=C(CS(=O)(=O)c1ccccc1)c1ccccc1`, 105 °C; that for `COc1ccc2cc([C@H](C)C(=O)OCC(=O)N(C)CC(=O)OCCO[N+](=O)[O-])ccc2c1`, 71 to 73 °C. The result for `COc1cc(N)c(Cl)cc1C(=O)NN1CCN(Cc2cccs2)CC1` reads 225 to 226 °C.

In turn, `COCCCN1C(=O)CS(=Cc2ccccc2Cl)C1=O` (stereo not given) had a melting point of 83 °C. As for `COC(=O)/C(=C/c1ccc(OCCc2nc(-c3ccccc3)oc2C)c2ccsc12)OC`, the figure is 165 °C; as for `COc1cc(C)c2c(c1OC)CCCC2=O`, 58 to 62 °C; as for `CC1(C)CCCC(=Cc2ccc(Cl)cc2)C1(O)Cn1cncn1` (stereo not given), 179 °C.

With `Cc1cc(N2CCC3(CC2)OCCO3)c2cc(C)c(-c3ccc(Cl)cc3Cl)n2n1`, the melting point lay in the range of 193 to 196 °C. The result for `O=C(O)CC1CCCN(C(=O)c2ccc(N3CCCC3)cc2Cl)c2ccccc21` (stereo not given) reads 191 to 192 °C; that for `NC(=O)c1cc(NCc2c(F)c(F)c(C(F)(F)F)c(F)c2F)ccc1O`, 143 to 145 °C; that for `C=CCCCCCCCCC(=O)N1CCN(c2cc(N)nc(N)n2)CC1`, 100 to 104 °C.

In turn, `CC(C)Nc1cccnc1N1CCN(C(=O)c2ccc(C(=O)N3CCN(CCO)CC3)cc2)CC1` gave a melting point of 148 to 149 °C. Consider `CCOC(=O)COc1ccc(Nc2nccc(-c3ccncc3)n2)cc1`, for which the melting point was in the range of 109 to 111 °C.

Compound `COc1ccc(NS(=O)(=O)c2cccc3c(N(C)C)cccc23)nn1` had a melting point of 125 to 127 °C.

As to `Oc1ccc(C(=C(Cl)c2ccccc2)c2ccccc2)cc1`, the melting point was in the range of 127 to 129 °C. As for `CCOc1nn(Cc2ccc(OCc3ccc(-c4ccccc4)nc3)cc2)cc1CCC(=O)O`, the melting point was 140 to 141 °C.

In turn, `COc1cc(N)c(CCN2CCN(c3nsc4ccccc34)CC2)cc1OC` returned a melting point of 55 °C. The result for `O=C(c1cccc([N+](=O)[O-])c1)n1c2cc(O)c(O)cc2c2ccc(O)c(O)c21` reads 275 to 279 °C.

The compound `Cc1c(Sc2ccc(Cl)cc2)c2cc(S(C)(=O)=O)ccc2n1CC(=O)O` showed a melting point of 185 to 187 °C.

`CCOC(=O)CC[C@H](NC(=O)Oc1ccc(CCCCc2c(N)nc(N)nc2O)s1)C(=O)OCC` registered a melting point of 96 to 98 °C. The result for `C=CCc1cc(C=C(C(=O)OCC)C(=O)OCC)cc(OC)c1OC` reads 43 to 44 °C; that for `COCOc1cc(CCC(=O)c2c(OC)cc(OC)c(CCC(C)C)c2O)ccc1OC`, 93.5 to 94.5 °C; that for `CCCCCCc1ccc(-c2cnn(C(C)(C)Cc3ccc(C)cc3)c2O)cc1`, 149 to 151 °C.

Turning to `Cn1c(C(F)(F)F)cc(=O)n(-c2cc(OCC=C(Cl)Cl)c(Cl)cc2F)c1=O`, the melting point was in the range of 126 to 127 °C.
